In the NIST ThermoML archive (doi:10.1016/j.jct.2011.10.027):

Assay: xn = mol fraction of the nth substance listed
Conditions: 101 kPa, Liquid, Vibrating tube method

CCCCN(CCCC)CCCC [tributylamine] + CCc1ccccc1
mass density [kg/m3]
Conditions	293.15 K	298.15 K	303.15 K	313.15 K	323.15 K	333.15 K
x1 = 0.0829	852.96	848.66	844.35	835.7	827	818.22
x1 = 0.1602	841.78	837.56	833.34	824.84	816.3	807.68
x1 = 0.2404	831.68	827.53	823.38	815.04	806.64	798.19
x1 = 0.3189	823	818.92	814.83	806.62	798.36	790.04
x1 = 0.3972	815.35	811.33	807.3	799.2	791.06	782.85
x1 = 0.4788	808.26	804.3	800.32	792.33	784.3	776.21
x1 = 0.572	801.08	797.17	793.25	785.37	777.45	769.48
x1 = 0.6382	796.47	792.6	788.71	780.91	773.07	765.18
x1 = 0.7192	791.35	787.52	783.67	775.96	768.2	760.39
x1 = 0.8022	786.64	782.83	779.02	771.38	763.69	755.96
x1 = 0.8765	782.75	778.98	775.21	767.62	760	752.32
x1 = 0.9556	778.92	775.18	771.44	763.92	756.36	748.76

CCCCN(CCCC)CCCC [tributylamine] + Cc1ccccc1
mass density [kg/m3]
Conditions	293.15 K	298.15 K	303.15 K	313.15 K	323.15 K	333.15 K
x1 = 0.0818	851.2	846.71	842.2	833.14	824.01	814.79
x1 = 0.1626	838.57	834.2	829.81	821	812.13	803.18
x1 = 0.2401	828.4	824.14	819.86	811.26	802.6	793.86
x1 = 0.3243	819.07	814.89	810.71	802.29	793.83	785.3
x1 = 0.3987	811.93	807.83	803.72	795.46	787.15	778.78
x1 = 0.4789	805.28	801.25	797.2	789.08	780.92	772.69
x1 = 0.5592	799.41	795.44	791.46	783.47	775.43	767.34
x1 = 0.6414	794.14	790.22	786.3	778.42	770.5	762.52
x1 = 0.7238	789.42	785.56	781.69	773.92	766.11	758.24
x1 = 0.7985	785.62	781.8	777.97	770.28	762.56	754.78
x1 = 0.8802	781.79	778.01	774.23	766.64	759	751.31
x1 = 0.8991	780.96	777.2	773.42	765.85	758.23	750.57
